Laboratory results taken from ChEMBL document CHEMBL1148370, “Studies toward the discovery of the next generation of antidepressants. 3. Dual 5-HT1A and serotonin transporter affinity within a class of N-aryloxyethylindolylalkylamines” (J Med Chem, 2004).

Experiments:
[1] = target: Sodium-dependent serotonin transporter (Homo sapiens, UniProt P31645); type: cell-based, JAR
Description: Inhibition concentration against [3H]5-HT uptake by human serotonin transporter in JAR cells

[2] = target: T1, Adrenergic receptor alpha-1 (Rattus norvegicus, UniProt P15823+P23944+P43140)
T1 sequence (P15823 whole entry): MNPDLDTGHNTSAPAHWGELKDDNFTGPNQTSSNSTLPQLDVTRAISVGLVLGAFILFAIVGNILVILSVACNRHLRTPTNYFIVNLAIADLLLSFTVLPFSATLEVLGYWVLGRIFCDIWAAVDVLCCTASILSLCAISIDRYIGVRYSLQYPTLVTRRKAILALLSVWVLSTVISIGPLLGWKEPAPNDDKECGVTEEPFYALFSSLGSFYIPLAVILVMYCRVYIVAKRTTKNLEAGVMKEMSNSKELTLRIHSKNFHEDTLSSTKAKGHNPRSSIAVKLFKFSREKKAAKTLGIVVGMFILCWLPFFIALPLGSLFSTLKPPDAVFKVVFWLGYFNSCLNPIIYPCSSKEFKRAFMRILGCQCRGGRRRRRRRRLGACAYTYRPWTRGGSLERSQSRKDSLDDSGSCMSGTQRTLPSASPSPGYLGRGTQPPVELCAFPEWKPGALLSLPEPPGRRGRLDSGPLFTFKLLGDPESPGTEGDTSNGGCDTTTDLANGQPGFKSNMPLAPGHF
T1 sequence (P23944 whole entry): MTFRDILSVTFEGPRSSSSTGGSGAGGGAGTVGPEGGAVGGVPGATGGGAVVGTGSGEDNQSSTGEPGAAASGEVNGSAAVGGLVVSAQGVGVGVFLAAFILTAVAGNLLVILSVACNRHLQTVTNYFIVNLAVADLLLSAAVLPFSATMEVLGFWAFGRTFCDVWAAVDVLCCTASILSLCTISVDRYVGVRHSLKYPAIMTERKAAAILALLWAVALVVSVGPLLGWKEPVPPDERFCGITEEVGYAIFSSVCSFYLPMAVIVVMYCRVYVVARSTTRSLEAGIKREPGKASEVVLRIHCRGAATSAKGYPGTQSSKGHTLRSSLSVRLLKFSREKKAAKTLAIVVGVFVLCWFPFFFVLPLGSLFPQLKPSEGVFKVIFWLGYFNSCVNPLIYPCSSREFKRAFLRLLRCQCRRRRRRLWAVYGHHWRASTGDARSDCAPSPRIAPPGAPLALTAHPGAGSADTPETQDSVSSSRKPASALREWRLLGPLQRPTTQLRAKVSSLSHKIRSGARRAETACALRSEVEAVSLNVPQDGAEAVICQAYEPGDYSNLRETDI
T1 sequence (P43140 whole entry): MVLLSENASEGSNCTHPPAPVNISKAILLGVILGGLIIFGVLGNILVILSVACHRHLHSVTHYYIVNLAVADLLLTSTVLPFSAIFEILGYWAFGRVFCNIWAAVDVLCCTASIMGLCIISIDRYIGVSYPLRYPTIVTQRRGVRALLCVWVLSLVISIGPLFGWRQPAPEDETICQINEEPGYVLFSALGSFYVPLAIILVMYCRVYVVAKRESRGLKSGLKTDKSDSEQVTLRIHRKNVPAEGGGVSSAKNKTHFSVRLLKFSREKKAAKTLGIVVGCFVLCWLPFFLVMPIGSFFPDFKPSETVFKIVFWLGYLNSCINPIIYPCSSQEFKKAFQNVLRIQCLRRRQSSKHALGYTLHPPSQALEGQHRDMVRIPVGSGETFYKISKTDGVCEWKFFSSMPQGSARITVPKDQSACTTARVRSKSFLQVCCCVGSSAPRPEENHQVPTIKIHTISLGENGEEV
Description: Binding affinity against rat cortical alpha-1 adrenergic receptor labeled with [3H]prazosin radioligand

[3] = target: Adrenergic receptor alpha-1 (Rattus norvegicus) (UniProt P15823+P23944+P43140); assay: Percent inhibition against rat cortical alpha-1 adrenergic receptor labeled with [3H]prazosin radioligand was determined; type: protein assay; settings: concentration not given here
[4] = target: Sodium-dependent serotonin transporter (Rattus norvegicus, UniProt P31652)
Sodium-dependent serotonin transporter (Rattus norvegicus, UniProt P31652), sequence (P31652 whole entry): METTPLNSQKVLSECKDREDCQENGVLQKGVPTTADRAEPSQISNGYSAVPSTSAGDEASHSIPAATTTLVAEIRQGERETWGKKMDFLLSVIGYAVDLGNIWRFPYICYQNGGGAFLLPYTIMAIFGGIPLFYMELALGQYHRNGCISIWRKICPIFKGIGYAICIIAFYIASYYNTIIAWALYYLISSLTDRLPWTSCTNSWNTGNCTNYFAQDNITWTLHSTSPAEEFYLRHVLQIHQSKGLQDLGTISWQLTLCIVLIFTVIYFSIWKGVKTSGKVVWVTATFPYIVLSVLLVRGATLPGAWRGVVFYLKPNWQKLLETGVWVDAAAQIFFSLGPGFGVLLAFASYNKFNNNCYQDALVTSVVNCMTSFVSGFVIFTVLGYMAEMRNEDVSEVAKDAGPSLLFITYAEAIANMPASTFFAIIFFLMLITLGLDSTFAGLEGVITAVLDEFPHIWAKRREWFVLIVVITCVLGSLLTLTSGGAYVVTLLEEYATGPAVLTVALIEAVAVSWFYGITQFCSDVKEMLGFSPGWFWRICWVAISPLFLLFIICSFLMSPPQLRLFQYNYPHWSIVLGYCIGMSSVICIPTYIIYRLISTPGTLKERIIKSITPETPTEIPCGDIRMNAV
Description: Binding affinity against serotonin transporter in rat cortical tissues using radioligand [3H]paroxetine

Sodium-dependent serotonin transporter (Homo sapiens, UniProt P31645), sequence (P31645 whole entry): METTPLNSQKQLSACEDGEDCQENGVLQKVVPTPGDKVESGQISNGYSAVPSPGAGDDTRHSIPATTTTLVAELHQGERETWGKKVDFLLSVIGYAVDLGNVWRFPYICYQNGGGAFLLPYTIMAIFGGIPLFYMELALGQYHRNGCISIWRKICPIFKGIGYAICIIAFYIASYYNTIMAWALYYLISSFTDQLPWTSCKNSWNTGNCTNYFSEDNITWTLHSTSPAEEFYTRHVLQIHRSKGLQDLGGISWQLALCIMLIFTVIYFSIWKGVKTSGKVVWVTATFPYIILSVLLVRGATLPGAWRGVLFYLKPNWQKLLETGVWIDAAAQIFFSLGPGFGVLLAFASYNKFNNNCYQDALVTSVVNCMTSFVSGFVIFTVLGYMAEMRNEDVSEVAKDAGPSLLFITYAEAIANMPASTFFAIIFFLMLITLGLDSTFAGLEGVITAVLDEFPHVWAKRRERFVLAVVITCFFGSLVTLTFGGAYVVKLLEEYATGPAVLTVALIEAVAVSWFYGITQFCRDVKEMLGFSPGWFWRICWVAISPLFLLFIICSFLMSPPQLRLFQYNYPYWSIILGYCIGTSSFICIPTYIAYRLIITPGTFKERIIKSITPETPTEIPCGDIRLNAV

| SMILES | IC50 [1] [nM] | Ki [2] [nM] | inhibition [3] [%] | Ki [4] [nM] |
| --- | --- | --- | --- | --- |
| Fc1ccc2[nH]cc(CCCNCCOc3cccc4c3OCCO4)c2c1 | 6.3 | 9.6 |  |  |
| COc1ccccc1OCCNCCCCc1c[nH]c2ccccc12 |  | 100 | 99 |  |
| Fc1ccc2[nH]cc(CCCNCCOc3cccc4c3CCCC4)c2c1 | 305 |  |  |  |
| Fc1ccc2[nH]cc(CCCNCCOc3cccc4nccnc34)c2c1 | 20 | 52 |  | 1.2 |
| c1ccc2c(CCCCNCCOc3cccc4[nH]ccc34)c[nH]c2c1 | 862 |  |  |  |
| Fc1cc2c(c(OCCNCCCc3c[nH]c4ccc(F)cc34)c1)OCC2 | 61.5 | 9.2 |  | 1.17 |
| Fc1ccc2[nH]cc(CCCNCCOc3cccc4[nH]ccc34)c2c1 | 24.4 | 5.6 |  |  |
| Fc1ccc2[nH]cc(CCCNCCOc3cccc4ncccc34)c2c1 | 73 | 122 |  | 1.1 |
| Fc1cc(OCCNCCCc2c[nH]c3ccc(F)cc23)c2c(c1)OCCO2 | 24.6 | 13.3 |  | 0.49 |
| COc1ccc(F)cc1OCCNCCc1c[nH]c2ccc(F)cc12 |  | 4.8 |  | 23.5 |
| Fc1cc2c(c(OCCNCCc3c[nH]c4ccc(F)cc34)c1)OCCC2 | 86.4 | 11.9 |  |  |
| c1ccc2c(OCCNCCCc3c[nH]c4ccccc34)cccc2c1 | 2170 | 204 |  | 123 |
| Fc1cc2c(c(OCCNCCc3c[nH]c4ccccc34)c1)OCCC2 | 42.2 | 4.4 |  |  |
| Fc1cc2c(c(OCCNCCCc3c[nH]c4ccc(F)cc34)c1)OCCC2 | 7 | 100 | 79 |  |
| Fc1cc2c(c(OCCNCCc3c[nH]c4ccc(F)cc34)c1)OCC2 | 254 | 100 | 85 |  |
| COc1ccccc1OCCNCCCc1c[nH]c2ccc(F)cc12 | 20 |  | 95 |  |
| COc1ccc(F)cc1OCCNCCCc1c[nH]c2ccc(F)cc12 | 20.5 | 2.5 |  |  |
| Fc1ccc2[nH]cc(CCCNCCOc3ccccc3)c2c1 | 3790 | 3.4 |  | 120 |
| Fc1ccc2[nH]cc(CCNCCOc3cccc4c3OCCO4)c2c1 | 84.7 | 100 | 80 | 13.5 |
| Fc1ccc2[nH]cc(CCCNCCOc3cccc4[nH]cnc34)c2c1 |  | 100 | 93 |  |
| c1cnc2c(OCCNCCCc3c[nH]c4ccccc34)cccc2c1 |  | 7.4 |  |  |
| Fc1ccc2[nH]cc(CCCNCCOc3cccc4ccoc34)c2c1 | 28.1 | 27.7 |  |  |
| Fc1ccc2[nH]cc(CCCNCCOc3cc(Cl)cc4[nH]cnc34)c2c1 | 4.5 | 4.6 |  |  |
| Fc1ccc2[nH]cc(CCCNCCOc3cccc4c3OCC4)c2c1 | 9.7 | 100 | 85 |  |
| COc1ccc(F)cc1OCCNCCc1c[nH]c2ccccc12 | 249 | 3.3 |  | 43 |
| c1ccc2c(CCCNCCOc3cccc4[nH]ccc34)c[nH]c2c1 | 154 | 100 | 89 |  |
| Fc1cc(OCCNCCCc2c[nH]c3ccc(F)cc23)c2occc2c1 |  | 34.3 |  | 2.2 |
